Our source for the IC50 values is patent US20260015350A1, “AZAQUINAZOLINE PAN-KRAS INHIBITORS” (Mirati Therapeutics, Inc., priority 2022, published 2026).

The target in one experiment is T1, KRas^G12S (Homo sapiens, UniProt P01116, G12S).
T1 construct: Biotinylated KRas (corresponding to amino acids 1-169, produced at Accelegan Inc.); biotin (biotinylated); purchased Accelegan Inc
As to the kind of experiment: KRas binding assay (TR-FRET tracer displacement), KRas G12S. The following applies: TR-FRET tracer displacement, KRas G12S. (In general: Time-resolved FRET reads energy transfer from a long-lived donor to a nearby acceptor.)

The next experiment deals with T2, KRas^G12V (Homo sapiens, UniProt P01116, G12V).
T2 construct: Biotinylated KRas (corresponding to amino acids 1-169, produced at Accelegan Inc.); biotin (biotinylated); purchased Accelegan Inc
T2 sequence (P01116 1-169 isoform P01116-2 G12V): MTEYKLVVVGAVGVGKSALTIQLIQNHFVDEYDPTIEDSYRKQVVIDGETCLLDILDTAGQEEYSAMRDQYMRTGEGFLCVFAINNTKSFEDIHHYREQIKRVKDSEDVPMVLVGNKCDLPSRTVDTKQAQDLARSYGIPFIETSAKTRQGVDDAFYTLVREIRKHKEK
As to the kind of experiment: KRas binding assay (TR-FRET tracer displacement), KRas G12V.

Another experiment deals with T3, KRas^G12C (Homo sapiens, UniProt P01116, G12C).
T3 construct: Biotinylated KRas (corresponding to amino acids 1-169, produced at Accelegan Inc.); biotin (biotinylated); purchased Accelegan Inc
T3 sequence (P01116 1-169 isoform P01116-2 G12C): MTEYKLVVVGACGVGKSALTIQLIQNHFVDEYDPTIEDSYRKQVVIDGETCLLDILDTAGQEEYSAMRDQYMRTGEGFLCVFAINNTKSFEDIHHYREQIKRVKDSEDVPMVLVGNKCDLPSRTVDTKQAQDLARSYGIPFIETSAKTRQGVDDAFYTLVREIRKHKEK
As to the kind of experiment: KRas binding assay (TR-FRET tracer displacement), KRas G12C. Conditions: TR-FRET tracer displacement, KRas G12C.

For a further experiment, the target named is T4, KRas^Q61H (Homo sapiens, UniProt P01116, Q61H).
T4 construct: Biotinylated KRas (corresponding to amino acids 1-169, produced at Accelegan Inc.); biotin (biotinylated); purchased Accelegan Inc
T4 sequence (P01116 1-169 isoform P01116-2 Q61H): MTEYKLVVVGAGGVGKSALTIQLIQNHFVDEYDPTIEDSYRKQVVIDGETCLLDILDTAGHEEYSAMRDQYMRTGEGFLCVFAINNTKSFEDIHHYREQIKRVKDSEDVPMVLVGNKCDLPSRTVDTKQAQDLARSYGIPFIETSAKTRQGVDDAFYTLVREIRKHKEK
As to the kind of experiment: KRas binding assay (TR-FRET tracer displacement), KRas Q61H. The following applies: TR-FRET tracer displacement, KRas Q61H.

In a further experiment the target is T5, KRas^G12R (Homo sapiens, UniProt P01116, G12R).
T5 construct: Biotinylated KRas (corresponding to amino acids 1-169, produced at Accelegan Inc.); biotin (biotinylated); purchased Accelegan Inc
T5 sequence (P01116 1-169 isoform P01116-2 G12R): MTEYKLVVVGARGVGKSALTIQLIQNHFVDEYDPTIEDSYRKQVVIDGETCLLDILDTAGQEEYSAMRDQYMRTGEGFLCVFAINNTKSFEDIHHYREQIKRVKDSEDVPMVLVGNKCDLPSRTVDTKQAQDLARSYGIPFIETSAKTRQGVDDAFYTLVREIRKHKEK
Nature of the experiment: KRas binding assay (TR-FRET tracer displacement), KRas G12R.

Another experiment has as its target T6, KRas^G13D (Homo sapiens, UniProt P01116, G13D).
T6 construct: Biotinylated KRas (corresponding to amino acids 1-169, produced at Accelegan Inc.); biotin (biotinylated); purchased Accelegan Inc
As to the kind of experiment: KRas binding assay (TR-FRET tracer displacement), KRas G13D. Conditions: TR-FRET tracer displacement, KRas G13D.

A further experiment has as its target T7, KRas^WT (Homo sapiens, UniProt P01116).
T7 construct: Biotinylated KRas (corresponding to amino acids 1-169, produced at Accelegan Inc.); biotin (biotinylated); purchased Accelegan Inc
Nature of the experiment: KRas binding assay (TR-FRET tracer displacement), KRas WT. The following applies: TR-FRET tracer displacement, KRas WT.

For the next experiment, the target named is T8, KRas^G12A (Homo sapiens, UniProt P01116, G12A).
T8 construct: Biotinylated KRas (corresponding to amino acids 1-169, produced at Accelegan Inc.); biotin (biotinylated); purchased Accelegan Inc
T8 sequence (P01116 1-169 isoform P01116-2 G12A): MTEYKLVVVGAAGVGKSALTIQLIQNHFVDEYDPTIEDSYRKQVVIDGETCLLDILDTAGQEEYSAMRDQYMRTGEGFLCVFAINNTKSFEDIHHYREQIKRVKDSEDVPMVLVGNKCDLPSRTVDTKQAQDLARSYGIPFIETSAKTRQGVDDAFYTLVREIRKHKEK
As to the kind of experiment: KRas binding assay (TR-FRET tracer displacement), KRas G12A. The following applies: TR-FRET tracer displacement, KRas G12A.

The target in another experiment is T9, KRas^G12D (Homo sapiens, UniProt P01116, G12D).
T9 construct: Biotinylated KRas (corresponding to amino acids 1-169, produced at Accelegan Inc.); biotin (biotinylated); purchased Accelegan Inc
T9 sequence (P01116 1-169 isoform P01116-2 G12D): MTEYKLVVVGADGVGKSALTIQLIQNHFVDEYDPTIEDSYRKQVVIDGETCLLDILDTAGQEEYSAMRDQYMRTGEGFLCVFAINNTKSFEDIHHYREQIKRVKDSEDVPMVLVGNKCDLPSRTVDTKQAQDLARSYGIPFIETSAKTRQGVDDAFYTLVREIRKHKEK
As to the kind of experiment: KRas binding assay (TR-FRET tracer displacement), KRas G12D.

T1 sequence (P01116 1-169 isoform P01116-2 G12S): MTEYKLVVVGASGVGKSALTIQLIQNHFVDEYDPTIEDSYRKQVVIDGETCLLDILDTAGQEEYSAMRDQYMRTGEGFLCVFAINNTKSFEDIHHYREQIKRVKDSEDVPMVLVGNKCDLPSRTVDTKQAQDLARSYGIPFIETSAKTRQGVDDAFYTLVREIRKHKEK
T7 sequence (P01116 1-169 isoform P01116-2): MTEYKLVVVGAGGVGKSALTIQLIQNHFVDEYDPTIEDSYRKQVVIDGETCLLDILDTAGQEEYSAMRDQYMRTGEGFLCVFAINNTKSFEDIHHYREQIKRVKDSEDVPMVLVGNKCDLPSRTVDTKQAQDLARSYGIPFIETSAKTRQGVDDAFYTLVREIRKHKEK
T6 sequence (P01116 1-169 isoform P01116-2 G13D): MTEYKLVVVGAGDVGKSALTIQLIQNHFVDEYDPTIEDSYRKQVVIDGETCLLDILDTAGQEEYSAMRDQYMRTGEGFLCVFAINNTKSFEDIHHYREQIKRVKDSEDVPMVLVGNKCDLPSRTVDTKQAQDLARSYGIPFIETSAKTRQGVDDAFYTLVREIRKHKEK

The term IC50 denotes the point on the concentration scale where inhibition reaches its midpoint. The low end stands for greater potency, the high end for weaker potency. With `O=C1NC(=O)C2CC(c3nc(OCC45CCCN4CCC5)nc4c(F)c(-c5cccc6cccc(F)c56)ncc34)=CC12` (stereo not drawn) [Example 525, 5-(8-fluoro-7-(8-fluoronaphthalen-1-yl)-2-((tetrahydro-1H-pyrrolizin-7a(5H)-yl)methoxy)pyrido[4,3-d]pyrimidin-4-yl)-4,6a-dihydrocyclopenta[c]pyrrole-1,3(2H,3aH)-dione], the IC50 on KRas^G12S was over 100000 nM; at KRas^G12V, 55900 nM; on KRas^G12C it was over 100000 nM; at KRas^Q61H, over 100000 nM; on KRas^G12R it was 45400 nM; on KRas^G13D, over 100000 nM. The IC50 on KRas^WT is over 100000 nM; at KRas^G12A it was 93800 nM; on KRas^G12D, 50700 nM.
Take `O[C@@H]1C[C@H]2C[C@@H]1CN(c1nc(OC[C@@]34CCCN3C[C@H](F)C4)nc3c(F)c(-c4cccc5ccccc45)ncc13)C2` [Example 724, (1R,5R,6R)-3-(8-fluoro-2-(((2R,7aS)-2-fluorohexahydro-1H-pyrrolizin-7a-yl)methoxy)-7-(naphthalen-1-yl)pyrido[4,3-d]pyrimidin-4-yl)-3-azabicyclo[3.2.1]octan-6-ol]: the IC50 amounted to 170 nM at KRas^G12S; 404 nM on KRas^G12V; 185 nM at KRas^G12C; 612 nM at KRas^Q61H; 720 nM on KRas^G12R; 585 nM on KRas^G13D. Also, the IC50 turned out to be 419 nM at KRas^WT, 301 nM at KRas^G12A and 1590 nM on KRas^G12D.
For the compound `Cc1cc2sncc2c(-c2ncc3c(N4CCC[C@@](C)(O)C4)nc(OCC45CCCN4CCC5)nc3c2F)c1C` [Example 820, (3R)-1-(7-(5,6-dimethylbenzo[d]isothiazol-4-yl)-8-fluoro-2-((tetrahydro-1H-pyrrolizin-7a(5H)-yl)methoxy)pyrido[4,3-d]pyrimidin-4-yl)-3-methylpiperidin-3-ol], the IC50 stood at 1510 nM at KRas^G12S; 52000 nM at KRas^G12V; 591 nM on KRas^G12C; 2130 nM at KRas^Q61H; 76200 nM at KRas^G12R; 470 nM on KRas^G13D. Besides, the values for the IC50 on KRas^WT, on KRas^G12A and at KRas^G12D were 1400 nM, 634 nM and 22900 nM, respectively.
Consider `Cc1cc2[nH]nnc2c(-c2ncc3c(N4CCC[C@@](C)(O)C4)nc(OC[C@@]45CCCN4C[C@H](F)C5)nc3c2F)c1C` [Example 821, (3R)-1-(7-(5,6-dimethyl-1H-benzo[d][1,2,3]triazol-4-yl)-8-fluoro-2-(((2R,7aS)-2-fluorotetrahydro-1H-pyrrolizin-7a(5H)-yl)methoxy)pyrido[4,3-d]pyrimidin-4-yl)-3-methylpiperidin-3-ol], for which the IC50 on KRas^G12S is 121 nM; at KRas^G12V it was 5850 nM; at KRas^G12C it was 146 nM; at KRas^Q61H it was 196 nM; at KRas^G12R, 12000 nM; at KRas^G13D it was 146 nM. The IC50 was found to be 151 nM on KRas^WT, 137 nM at KRas^G12A and 3890 nM at KRas^G12D.
Take `Cc1cc2[nH]nnc2c(-c2ncc3c(N4CCOC[C@@](C)(O)C4)nc(OCC45CCCN4CCC5)nc3c2F)c1C` [Example 822, (6S)-4-(7-(5,6-dimethyl-1H-benzo[d][1,2,3]triazol-4-yl)-8-fluoro-2-((tetrahydro-1H-pyrrolizin-7a(5H)-yl)methoxy)pyrido[4,3-d]pyrimidin-4-yl)-6-methyl-1,4-oxazepan-6-ol]: the IC50 at KRas^G12S came out at 4660 nM; at KRas^G12V, 3430 nM; on KRas^G12C, 4080 nM; at KRas^Q61H it was 5660 nM; on KRas^G12R, 9670 nM; on KRas^G13D, 5410 nM. Also, the figures for the IC50 on KRas^WT, on KRas^G12A and at KRas^G12D were 5420 nM, 4980 nM and 2180 nM, respectively.
